Measurements: publication PMC9133069, “In vitro proliferation and long-term preservation of functional primary rat hepatocytes in cell fibers” (Scientific Reports, 2022)

How the values were obtained:
Assay type in all cases: cell-based
primary rat hepatocytes [1] = experiment: Assessment of hepatocyte proliferation inhibition in cell fibers
Description: Practically, core–shell hydrogel microfibers were fabricated to encapsulate primary rat hepatocytes at the initial cell seeding density of 2.5 × 10^7 cells mL^−1.
For that, we first fabricated cell fibers encapsulating primary rat hepatocytes at the initial cell seeding density of 2.5 × 10^7 cells mL^−1. […] Subsequently, we compared these two groups over time by analyzing their morphology and cell number.
Counting primary rat hepatocytes and evaluating their viability per cell fiber were performed three times and averaged. Prior to those procedures, the alginate shells were removed, and the primary rat hepatocytes were retrieved. To remove the shells of the cell fibers, 4 mg mL^−1 of alginate lyase (Sigma Aldrich) in Dulbecco's Phosphate-Buffered Saline (DPBS) (+) was added at a 1:100 ratio to the culture media, and the media were incubated for 15 min. To retrieve primary rat hepatocytes from ECM, 4 mg mL^−1 of collagenase (Sigma-Aldrich) in DPBS (+) was added at a 1:50 ratio to the culture media and the media were incubated for 5 min. The cell number of primary rat hepatocytes per cell fiber was counted by using cell-counting plate (WakenBtech, Japan). The cellular viabilities were examined by the trypan blue dye-exclusion test.
Then immediately, this working solution was diluted in media at intended concentrations. The changeover between starting and stopping exposure to retrorsine was done by medium replacement; the culture media surrounding the cell fibers can be completely removed from petri dishes to be replaced with new ones while keeping the cell fibers intact. The proliferation rate of the hepatocytes in the experimental groups was calculated by dividing the numbers of the hepatocytes that proliferated from 2 days of culture to 3 days of culture in the experimental groups with the ones in the control group.

primary rat hepatocytes [2] = experiment: Hepatotoxicity assessment, urea synthesis after 24 h compound treatment; details: Hepatocyte, 24 h treatment
Procedure: (§1) To explore the possible application of cell fibers encapsulating primary hepatocytes in the field of drug screening, we evaluated the potential of cell fibers for in vitro detection of hepatotoxicity of drugs. […] First, primary rat hepatocytes were encapsulated into core–shell hydrogel microfibers at the initial cell seeding density of 2.5 × 10^7 cells mL^−1 and were cultured in the media supplemented with 3T3CM. Secondly, the concentration-reaction curves for these compounds were obtained through the assays of cellular viability, albumin secretion, and urea synthesis performed at different time points: 4 days, 7 days, 14 days, and 30 days after the start of culture. Thirdly, based upon these concentration-reaction curves (Figs. S4–S7), the corresponding IC50 values were estimated. Moreover, we attempted to compare these IC50 values with those obtained using another culture system where primary rat hepatocytes were cultured on collagen-coated 24-well plates.
(§2) The amount of albumin in culture medium was measured using an enzyme-linked immunosorbent assay kit (rat albumin ELISA kit, Bethyl Laboratories, Montgomery, TX). The amount of urea in culture medium was measured using an assay kit (QuantiChrom urea assay kit, BioAssay Systems, Hayward, CA). For both assays, respective absorbency at 450 nm or at 430 nm was measured using a microplate reader (MTP-810, Corona Electric, and Hitachi, Japan). All the values were normalized by the number of hepatocytes and the data were expressed as protein amount 10^–6 cells time^−1.
(§3) Primary rat hepatocytes cultured either in cell fibers or in collagen-coated 24-well plates were treated for 24 h with either of these compounds diluted in media at intended concentrations, and then the respective compound-treated hepatocytes underwent assays of their different specific characteristics: cell viability, albumin secretion, or urea synthesis. Data from drug-treated hepatocytes were normalized to the respective untreated controls in the same culture system. By plotting these normalized data on y-axis and the concentrations of compounds on x-axis, the concentration-reaction curves were generated.
(§4) Culture of primary rat hepatocytes in cell fibers
(§5) After formation of core-shell hydrogel microfibers encapsulating primary rat hepatocytes, they were incubated at 37 °C for more than 15 minutes to set the ECM proteins at the core region into gels. Subsequently, primary rat hepatocytes in cell fibers were cultured in DMEM supplemented with 1% Glutamax, 10% heat-inactivated FBS, 100 IU mL-1 penicillin, 100 mg mL-1 streptomycin, insulin, 6.25 mg mL-1 transferrin, 6.25 ng mL-1 selenous acid (Lonza, Tokyo, Japan), and 1mM HEPES at 37 °C under a water saturated 5% CO2 environment; this medium is the one that have been optimized to […]
(§6) were performed every 48 hours. […]
(§7) Culture of primary rat hepatocytes using collagen-coated 24-well plates 5x10^5 primary rat hepatocytes freshly isolated were seeded on collagen-coated 24-well plates (Corning Japan K.K, Tokyo, Japan). The primary rat hepatocytes were first cultured in Dulbecco’s Modified Eagle’s Medium (DMEM; Gibco, Tokyo, Japan) supplemented with 1% Glutamax (Life Technologies, Tokyo, Japan), 10% heat-inactivated foetal bovine serum (Equitech-Bio, Kerrville, TX), 100 IU mL-1 penicillin (Gibco), 100 mg mL-1 streptomycin (Gibco), and 1mM HEPES (Sigma Aldrich, Japan) at 37 °C under a water saturated 5% CO2 environment. Three hours after the beginning of culture, media were changed and the primary rat hepatocytes started to be cultured in William’s medium E (Life Technologies) supplemented with 1% Glutamax, 100 IU mL-

primary rat hepatocytes [3] = experiment: Hepatotoxicity assessment, cell viability (trypan blue exclusion) after 24 h compound treatment; details: Hepatocyte, 24 h treatment
Procedure: as §1, §3, §4, §5, §6
as §7, with “Japan)” for “Japan) at 37 °C under a water saturated 5% CO2 environment. Three hours after the beginning of culture, media were changed and the primary rat hepatocytes started to be cultured in William’s medium E (Life Technologies) supplemented with 1% Glutamax, 100 IU mL-”

primary rat hepatocytes [4] = experiment: Hepatotoxicity assessment, albumin secretion (ELISA) after 24 h compound treatment; details: Hepatocyte, 24 h treatment
Procedure: as §1, §2, §3, §4, §5, §6
as §7, with “Three hours after the beginning of culture, media were changed and the primary rat hepatocytes started to be cultured in William’s medium E (Life Technologies) supplemented with 1% Glutamax, 100 IU mL-” left out

[5] = collagen-coated 24-well plates, culture duration 4 days
[6] = cell fibers (core–shell hydrogel microfibres), culture duration 4 days
[7] = cell fibers (core–shell hydrogel microfibres), culture duration 7 days
[8] = cell fibers (core–shell hydrogel microfibres), culture duration 14 days
[9] = cell fibers (core–shell hydrogel microfibres), culture duration 30 days

Compound | number of the cells in cell fibers during exposure (primary rat hepatocytes [1]; 10 mg mL^−1, 24 h from day 2 to day 3 of culture, media containing 3T3CM) | IC50 value, inhibition of primary rat hepatocyte proliferation (primary rat hepatocytes [1]; cell fibers with 3T3CM, 24 h exposure after 2 days of culture) [µg/mL] | IC50 (primary rat hepatocytes [1]; cell fibers with 3T3CM, 24 h exposure after 2 days of culture, converted from mg mL^−1) [mM] | IC50 (primary rat hepatocytes [2]; [5]) [mM] | IC50 (primary rat hepatocytes [3]; [5]) [mM] | IC50 (primary rat hepatocytes [2]; [6]) [mM] | IC50 (primary rat hepatocytes [2]; [7]) [mM] | IC50 (primary rat hepatocytes [2]; [8]) [mM] | IC50 (primary rat hepatocytes [2]; [9]) [mM] | IC50 (primary rat hepatocytes [4]; [6]) [mM] | IC50 (primary rat hepatocytes [4]; [7]) [mM] | IC50 (primary rat hepatocytes [4]; [8]) [mM] | IC50 (primary rat hepatocytes [4]; [9]) [mM] | IC50 (primary rat hepatocytes [4]; [5]) [mM] | IC50 (primary rat hepatocytes [3]; [6]) [mM] | IC50 (primary rat hepatocytes [3]; [7]) [mM] | IC50 (primary rat hepatocytes [3]; [8]) [mM] | IC50 (primary rat hepatocytes [3]; [9]) [mM]
retrorsine | did not change | 3100 ± 100 | ~8.82 | – | – | – | – | – | – | – | – | – | – | – | – | – | – | –
O=C(O)Cc1ccccc1Nc1c(Cl)cccc1Cl [Diclofenac] | – | – | – | 0.385 ± 0.041 | 0.472 ± 0.098 | – | – | – | – | – | – | – | – | – | – | – | – | –
CC(=O)Nc1ccc(O)cc1 [Acetaminophen] | – | – | – | 24 | 19.3 | 17 | 15.9 | 15.9 | 17.3 | 16.7 | 16.4 | 16.3 | 15.9 | 8.51 ± 0.089 | 18.3 | 18.6 | 18.9 | 18.9
